Results on 80 compounds are retold here after the METLIN SMRT retention time set (Domingo-Almenara et al. 2019).

This data set can be described thus: gradient 5% acetonitrile 3 min, to 50% in 2 min, to 85% in 15 min, held 3 min, 100 µL/min. As to conditions: column: Zorbax Extend-C18 2.1 x 50 mm; eluents: water / acetonitrile, 0.1% formic acid. In short, it runs like this: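 Pure standards were run in mixtures of ~100 molecules by HPLC coupled to a quadrupole time-of-flight mass spectrometer. The column was a Zorbax Extend-C18 (2.1 × 50 mm, 1.8 μm) at 100 μL/min, with water and acetonitrile each containing 0.1% formic acid, in positive and negative ionization mode. Dead and dwell volumes were 40 μL and 900 μL. Retention time was taken from computationally picked adduct peaks, each manually inspected, with data collected over 3 months.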
The compound `O=C(CN1C(=O)CCC1=O)N1CC(c2nc(-c3cccc(C(F)(F)F)c3)no2)C1` came in with an RP-LC retention time of 754 s.

`Cc1nc(OCC(=O)Nc2ccc(Br)cc2)c2ccccc2n1` showed an RP-LC retention time of 794 s.

For `O=C(CCNc1c(-c2ccc(F)cc2)nc2cnccn12)NCC1CC1`, the RP-LC retention time was 647 s.

In turn, `Fc1ccccc1-c1nc(-c2ccnc(N3CCCC3)c2)no1` displayed an RP-LC retention time of 702 s.

In turn, `Cc1ccc(Sc2nccnc2N2CCCC(C(=O)NC3CCCCCC3)C2)cc1` (stereo not given) showed an RP-LC retention time of 1250 s.

In the case of `O=C(Nc1ccc(F)cc1)N1CC2CN(S(=O)(=O)c3ccccc3)CC(C1)O2`, the RP-LC retention time came out at 752 s.

The compound `COc1ccc(N2CC(c3noc(-c4ccc(C(C)(C)C)cc4)n3)CC2=O)cc1OC` (stereo not given) yielded an RP-LC retention time of 1140 s.

In turn, `CCOc1ccc(NC(=O)CSC2=C(C#N)C(c3cccs3)CC(=O)N2)cc1` (stereo not given) returned an RP-LC retention time of 844 s.

For `Cc1noc(-c2ccccc2OC2CCNC2)n1` (stereo not given), the RP-LC retention time came out at 590 s.

In the case of `CCOC(=O)c1cn(CC(=O)NC2CCCC2)c2nc(C)ccc2c1=O`, the RP-LC retention time amounted to 686 s.

`CSc1cccc(NC(=O)CCc2c(-c3ccc(F)cc3)nc3ccccn23)c1` gave an RP-LC retention time of 713 s.

`Cc1cc(C)c(S(=O)(=O)N2CCn3c(nn(CC4CC4)c3=O)C2)cc1C` gave an RP-LC retention time of 873 s.

In turn, `CN1Cc2ccccc2-n2ccnc2C12CCN(C(=O)Cc1cccc(F)c1)CC2` came in with an RP-LC retention time of 666 s.

Regarding `COc1ccccc1NC(=O)C1CCN(S(=O)(=O)c2cc(C(=O)N3CCOCC3)cs2)CC1`, the RP-LC retention time came to 779 s.

As for `CCCN(CCC)S(=O)(=O)c1ccc(C(=O)Nc2nc(-c3ccc(F)cc3)cs2)cc1`, the RP-LC retention time is 1240 s.

Regarding `Cc1nn(-c2nc3ccccc3[nH]2)c2c1C(=O)CC(c1ccccc1)C2` (stereo not given), the RP-LC retention time was 990 s.

`COc1ccccc1Nc1nc(-c2ccccc2)cs1` registered an RP-LC retention time of 1150 s.

Compound `O=C(C1CCN(c2cnn(Cc3ccccc3)c(=O)c2)CC1)N1CCSCC1` yielded an RP-LC retention time of 648 s.

In turn, `CCOC(=O)C(C)c1c(C(=O)c2ccc(C)nc2)c2ccccc2n1C` (stereo not given) returned an RP-LC retention time of 1020 s.

As to `Cc1ccc(C)c(-c2cc3c(=O)n(Cc4nc(-c5ccccc5Br)no4)ncn3n2)c1`, the RP-LC retention time turned out to be 1220 s.

`CC(C)c1cccc(NC(=O)Cn2cnc3nc(N4CCCC(C(=O)NC5CC5)C4)sc3c2=O)c1` (stereo not given) showed an RP-LC retention time of 723 s.

Turning to `CCCCOC(=O)c1ccc(NC(=O)c2snnc2CC)cc1`, the RP-LC retention time turned out to be 1010 s.

Compound `O=C([C@@H]1C[C@H](F)CN1S(=O)(=O)Cc1ccccc1)N1CCOCC1` displayed an RP-LC retention time of 692 s.

Regarding `COc1ccc(Cc2nc3nccc(-c4ccc(OC)cc4)n3n2)cc1`, the RP-LC retention time was 878 s.

`CC(C)(C)OC(=O)Cn1cnc2c(-c3ccc(Br)cc3)csc2c1=O`: the RP-LC retention time turned out to be 1140 s.

`COCCOC(=O)c1cn(-c2cccc(OC)c2)c(=O)c2ccccc12` displayed an RP-LC retention time of 902 s.

Turning to `CCCN1CCN(Cc2nc(-c3ccc(N4CCSCC4)nc3)no2)CC1`, the RP-LC retention time turned out to be 615 s.

`COc1ccc(NC(=O)Nc2nccn(-c3ccccc3)c2=O)cc1OC`: the RP-LC retention time came to 784 s.

With `CCOC(=O)Cc1n[nH]c(CSc2nc3ccccc3s2)n1`, the RP-LC retention time was found to be 691 s.

In turn, `O=C(NCc1ccccc1)c1ncccn1` yielded an RP-LC retention time of 609 s.

For `CCC1CCCCN1CCCNC(=O)c1cn(CCOC)c(=O)c2c1c1ccccc1n2C` (stereo not given), the RP-LC retention time was determined as 631 s.

As to `O=C(CN1C(=O)CCCc2cc(S(=O)(=O)N3CCCCCC3)ccc21)NCc1ccccc1`, the RP-LC retention time came out at 905 s.

Compound `CC1=C(C(=O)N2CCOCC2)C(c2ccc(F)c(Br)c2)C2=C(CCCC2=O)N1` (stereo not given) displayed an RP-LC retention time of 659 s.

The compound `CCn1c(=O)sc2cc(S(=O)(=O)N3CCC(C(=O)NCc4ccco4)CC3)ccc21` showed an RP-LC retention time of 792 s.

`COc1ccc(CN2C=C(C(=O)OCc3noc(-c4ccccc4C)n3)C(C)=NS2(=O)=O)cc1` came in with an RP-LC retention time of 861 s.

Compound `CNC(=O)c1cc2nc(N(C)C)n(-c3ccc(OC)cc3)c2s1` gave an RP-LC retention time of 888 s.

For the compound `Nc1cc(C2CCN(C(=O)Nc3ccccc3Cl)CC2)no1`, the RP-LC retention time is 698 s.

In turn, `Cc1ccc(-c2cc3n(n2)CCCN(C(=O)CCN2C(=O)NC(C)(C)C2=O)C3)cc1C` came in with an RP-LC retention time of 730 s.

In turn, `CCOC(=O)c1[nH]c(C)c(CN(Cc2ccco2)C(=O)c2ccc3c(c2)OCO3)c1C` registered an RP-LC retention time of 935 s.

As to `CN(C)CCn1nnc2cc(-c3noc(-c4cccc(C#N)c4)n3)ccc21`, the RP-LC retention time is 633 s.

Take `COc1ccc(-c2ncc3c(n2)CCN(C(=O)c2cccc(Cl)c2)C3)cc1`: the RP-LC retention time amounted to 975 s.

For the compound `O=C(CN1CC=C(c2cnn(-c3ccccc3)c2)CC1)N1CCN(c2ccccc2)CC1`, the RP-LC retention time was determined as 702 s.

For the compound `CCN1C(=O)COc2ccc(-c3noc(CNC(=O)Cc4ccc(Cl)cc4)n3)cc21`, the RP-LC retention time amounted to 859 s.

For the compound `CCCCNC(=O)CCC(=O)N1CC2CCCN2c2ccccc21` (stereo not given), the RP-LC retention time amounted to 837 s.

`CC(C)CCN1CCC(N2CCN(CCc3ccccc3)CC2)C1=O` (stereo not given) came in with an RP-LC retention time of 565 s.

The compound `COc1ccccc1CNC(=O)c1ccc2c(c1)NC(=O)C1CCCCN21` (stereo not given) had an RP-LC retention time of 809 s.

Compound `CC1(C(=O)NCc2ccc(Cl)cc2)CN(S(C)(=O)=O)CC(=O)N1Cc1ccccc1` (stereo not given) had an RP-LC retention time of 858 s.

`O=C(NCc1cccs1)C1CN(S(=O)(=O)c2cccnc2)CC12CCCCC2` (stereo not given) yielded an RP-LC retention time of 856 s.

The compound `CCOc1ccc2nc(NC3=NCN(Cc4cccnc4)CN3)nc(C)c2c1` yielded an RP-LC retention time of 580 s.

Consider `Cc1cc(C)cc(S(=O)(=O)N2CCC(c3nc(C(=O)N4CCCC4)c(C)o3)CC2)c1`, for which the RP-LC retention time was determined as 1010 s.

In turn, `CCC1CCCCN1C(=O)c1cnc2nc(C)ccc2c1Nc1cc(Cl)ccc1OC` (stereo not given) registered an RP-LC retention time of 731 s.

`COc1ccc(-c2csc(Cc3nc(-c4cccc(Cl)c4)no3)n2)cc1OC` displayed an RP-LC retention time of 1160 s.

`COc1cc(OC)cc(-c2nc(-c3ccc(-n4ccnc4)nc3)no2)c1` returned an RP-LC retention time of 769 s.

`O=C(CN1C(=O)C2CCCCN2c2ccc(S(=O)(=O)N3CCCC3)cc21)NCCc1ccco1` (stereo not given) registered an RP-LC retention time of 885 s.

Regarding `CCOc1ccc(NC(=O)Cn2ncc3c(N4CCN(c5ccccn5)CC4)ncnc32)cc1`, the RP-LC retention time was found to be 624 s.

As to `COC(=O)CNC(=O)N1CCCCCC1c1ccc(C)cc1` (stereo not given), the RP-LC retention time turned out to be 852 s.

`CN(CC1CCOCC1)C(=O)Nc1cccc(Br)c1`: the RP-LC retention time was determined as 784 s.

The compound `CNC(=O)c1sc(-c2ccc(C)cc2)nc1C` displayed an RP-LC retention time of 785 s.

`CCN(Cc1ccccc1)C(=O)c1c(C)sc2ccn(CC)c(=O)c12` registered an RP-LC retention time of 754 s.

`O=C(Nc1cccc(Br)c1)c1cnc(-c2ccccc2)nc1-c1ccncc1` gave an RP-LC retention time of 990 s.

Compound `Cc1ccc(C2Cn3nnc(-c4nc(-c5cccc(F)c5)no4)c3CO2)c(C)c1` (stereo not given) displayed an RP-LC retention time of 1300 s.

Regarding `Cc1ccsc1CCNC(=O)C1CCN(S(=O)(=O)c2ccc3c(c2)sc(=O)n3C)CC1`, the RP-LC retention time stood at 872 s.

As for `O=C(CSc1nnc(-c2ccc(Br)cc2)o1)OCc1ccccc1`, the RP-LC retention time was 1150 s.

For `O=C(Nc1ccc(N2CCN(c3ccccc3)C2=O)nc1)c1ccc(Cl)cc1`, the RP-LC retention time was found to be 1010 s.

Take `O=C(CN1c2ccc(F)cc2-c2ccccc2S1(=O)=O)Nc1ccc(F)c(F)c1`: the RP-LC retention time is 974 s.

Take `COC(=O)c1cn(NC(=O)c2cc(-c3ccco3)nc3ccccc23)c(=O)c2ccccc12`: the RP-LC retention time was determined as 858 s.

`CSc1ccccc1NC(=O)c1cc(=O)c(OCc2ccc(F)cc2)co1` showed an RP-LC retention time of 859 s.

As to `CC(C)C(=O)N1CCN(c2nc(CN3CCCCC3)cs2)CC1`, the RP-LC retention time is 603 s.

For the compound `Cc1ccccc1S(=O)(=O)N1CCC(OCCOCc2ccccc2)CC1`, the RP-LC retention time turned out to be 1130 s.

Take `CSCCC(NS(=O)(=O)c1ccc(Oc2ccccc2C)cc1)C(=O)O` (stereo not given): the RP-LC retention time was determined as 852 s.

The compound `CCc1ccc(S(=O)(=O)c2cnc(N3CCN(c4cc(C)ccc4C)CC3)nc2N)cc1` came in with an RP-LC retention time of 1400 s.

`CCOC(=O)C(=O)Nc1ccc(SCc2nnc(-c3ccccc3)o2)cc1`: the RP-LC retention time is 881 s.

The compound `O=C(c1ccccc1F)N1CCN(C(=O)c2nnn3c2COC(c2ccc(Cl)cc2)C3)CC1` (stereo not given) had an RP-LC retention time of 914 s.

In turn, `Cn1c(=O)n(C)c2cc(CNCC(O)c3ccccc3)ccc21` (stereo not given) showed an RP-LC retention time of 569 s.

In the case of `COCc1nc(-c2ccc(OC3CN(Cc4ccsc4)C3)cc2)no1`, the RP-LC retention time came out at 656 s.

In turn, `CC(NC(=O)c1ccccc1)c1nc(-c2ccc3c(c2)nnn3C)no1` (stereo not given) came in with an RP-LC retention time of 756 s.

Turning to `COC(=O)c1ccc(Cl)cc1NC(=O)N1CCN(C)c2ncccc21`, the RP-LC retention time was 700 s.

Compound `CN(C)c1ccc(CNC(=O)c2nnc(-c3ccc(S(=O)(=O)N4CCCC4)cc3)o2)cc1` yielded an RP-LC retention time of 688 s.

In turn, `C=Cc1ccc(CN2CCCN(c3ncccc3-c3nc(C4CC4)no3)CC2)cc1` gave an RP-LC retention time of 757 s.

Take `COc1ccc(Cl)cc1S(=O)(=O)c1cnc(N2CCC(C)CC2)nc1N`: the RP-LC retention time was found to be 1040 s.
